Measured values taken from patent US9604996B2 (Bayer Pharma Aktiengesellschaft, priority 2013, dated 2017).

target: T1, human adenosine A2b receptor (Homo sapiens, UniProt P29275); experiment: Cellular reporter gene (CRE-luciferase) A2b receptor antagonist assay in recombinant CHO-K1 cells stimulated with NECA; assay type: cell-based; conditions: recombinant CHO-K1 cell line, co-incubation with EC50 concentration of NECA, 3 hours, in some cases means, rounded to two significant digits
T1 construct: expressed in transfected cells; host or cells: CHO-K1 (Chinese Hamster Ovary) with CRE-luciferase reporter
T1 sequence (P29275 1-332): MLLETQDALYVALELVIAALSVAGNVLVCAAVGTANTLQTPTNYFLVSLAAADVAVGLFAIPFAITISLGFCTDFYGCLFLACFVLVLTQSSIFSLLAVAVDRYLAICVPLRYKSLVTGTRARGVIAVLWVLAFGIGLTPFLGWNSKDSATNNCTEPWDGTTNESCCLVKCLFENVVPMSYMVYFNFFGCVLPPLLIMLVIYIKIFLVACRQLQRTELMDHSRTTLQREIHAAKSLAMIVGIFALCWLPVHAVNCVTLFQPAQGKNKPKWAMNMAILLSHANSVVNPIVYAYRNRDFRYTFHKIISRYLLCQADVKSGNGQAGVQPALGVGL
Description: B-1. Cellular In Vitro Tests for Determining A2b Receptor Activity and Adenosine Receptor Selectivity
The identification of selective antagonists of the human adenosine A2b receptor and the quantification of the efficacy and selectivity of the compounds according to the invention was carried out with the aid of recombinant cell lines for the human adenosine receptors A1, A2a, A2b and A3. These cell lines were originally derived from an ovarepithelial cell of the hamster (Chinese Hamster Ovary, CHO-K1, American Type Culture Collection, Manassas, Va. 20108, USA). In addition to the respective recombinantly expressed adenosine receptor for testing the efficacy at the A1, A2a and A2b receptors, the cell lines contain a reporter gene construct where expression of the firefly (Photinus pyralis) luciferase is under the control of a promoter which can be activated via intracellular signal cascades by stimulation of the receptors with the (not subtype-selective) adenosine receptor agonist NECA (5′-N-ethylcarboxamidoadenosine) [S. J. Hill, J. G. Baker, S. Rhees, Curr. Opin. Pharmacol. 1, 526-532 (2001)].
In the case of the A2a and A2b cell lines, this is a minimal promoter having a plurality of cAMP-responsive elements (CRE). Stimulation of the Gs coupled A2b or A2a receptors by NECA ultimately leads, via formation of cAMP, to CRE-dependent induction of luciferase expression, which is detected 3 hours after the start of the incubation with NECA using a detection solution in a suitable luminometer. For testing the antagonists, initially, in a pre-experiment, the concentration of NECA which, at the test day in question, results in half-maximum stimulation of luciferase expression (EC50 concentration) is determined By joint incubation of this EC50 concentration of NECA with the substances to be tested, it is possible to determine their antagonistic activity.

IC50	SMILES
0.045 µM	COC(Cn1c(=O)c2c(C)c(C(=O)N3CCC(O)CC3)sc2n(CCC(F)(F)F)c1=O)C(F)(F)F (single isomer, unassigned) [Example 107, 6-[(4-Hydroxypiperidin-1-yl)carbonyl]-5-methyl-3-(3,3,3-trifluoro-2-methoxypropyl)-1-(3,3,3-trifluoropropyl)thieno[2,3-d]pyrimidine-2,4(1H,3H)-dione]
0.58 µM	COC(Cn1c(=O)c2c(C)c(C(=O)N3CCC(O)CC3)sc2n(CCC(F)(F)F)c1=O)C(F)(F)F (single isomer, unassigned) [Example 108, 6-[(4-Hydroxypiperidin-1-yl)carbonyl]-5-methyl-3-(3,3,3-trifluoro-2-methoxypropyl)-1-(3,3,3-trifluoropropyl)thieno[2,3-d]pyrimidine-2,4(1H,3H)-dione]
0.11 µM	COC(Cn1c(=O)c2c(C)c(C(=O)N3CCC(O)(CO)CC3)sc2n(CCC(F)(F)F)c1=O)C(F)(F)F (single isomer, unassigned) [Example 114, 6-{[4-Hydroxy-4-(hydroxymethyl)piperidin-1-yl]carbonyl}-5-methyl-3-(3,3,3-trifluoro-2-methoxypropyl)-1-(3,3,3-trifluoropropyl)thieno[2,3-d]pyrimidine-2,4(1H,3H)-dione]
0.61 µM	COC(Cn1c(=O)c2c(C)c(C(=O)N3CCC(O)(CO)CC3)sc2n(CCC(F)(F)F)c1=O)C(F)(F)F (single isomer, unassigned) [Example 115, 6-{[4-Hydroxy-4-(hydroxymethyl)piperidin-1-yl]carbonyl}-5-methyl-3-(3,3,3-trifluoro-2-methoxypropyl)-1-(3,3,3-trifluoropropyl)thieno[2,3-d]pyrimidine-2,4(1H,3H)-dione]
0.14 µM	CCn1c(=O)c2c(C)c(C(=O)N3CCC(O)C(O)C3)sc2n(CCC(F)(F)F)c1=O (single isomer, unassigned) [Example 117, 6-[(3,4-Dihydroxypiperidin-1-yl)carbonyl]-3-ethyl-5-methyl-1-(3,3,3-trifluoropropyl)thieno [2,3-d]pyrimidine-2,4(1H,3H)-dione]
0.2 µM	CCn1c(=O)c2c(C)c(C(=O)N3CCC(O)C(O)C3)sc2n(CCC(F)(F)F)c1=O (single isomer, unassigned) [Example 118, 6-[(3,4-Dihydroxypiperidin-1-yl)carbonyl]-3-ethyl-5-methyl-1-(3,3,3-trifluoropropyl)thieno [2,3-d]pyrimidine-2,4(1H,3H)-dione]
0.13 µM	CCn1c(=O)c2c(C)c(C(=O)N3CCC(O)C(O)C3)sc2n(CCC(F)(F)F)c1=O (single isomer, unassigned) [Example 120, 6-[(3,4-Dihydroxypiperidin-1-yl)carbonyl]-3-ethyl-5-methyl-1-(3,3,3-trifluoropropyl)thieno [2,3-d]pyrimidine-2,4(1H,3H)-dione]
0.18 µM	CCn1c(=O)c2c(C)c(C(=O)N3CCC(O)C(O)C3)sc2n(CCC(F)(F)F)c1=O (single isomer, unassigned) [Example 121, 6-[(3,4-Dihydroxypiperidin-1-yl)carbonyl]-3-ethyl-5-methyl-1-(3,3,3-trifluoropropyl)thieno [2,3-d]pyrimidine-2,4(1H,3H)-dione]
0.024 µM	Cc1c(C(=O)N2CCC(O)CC2)sc2c1c(=O)n(CC(C)(O)c1ccccc1)c(=O)n2CCC(F)(F)F (single isomer, unassigned) [Example 132, 3-(2-Hydroxy-2-phenylpropyl)-6-[(4-hydroxypiperidin-1-yl)carbonyl]-5-methyl-1-(3,3,3-trifluoropropyl)thieno[2,3-d]pyrimidine-2,4(1H,3H)-dione]
0.85 µM	Cc1c(C(=O)N2CCC(O)CC2)sc2c1c(=O)n(CC(C)(O)c1ccccc1)c(=O)n2CCC(F)(F)F (single isomer, unassigned) [Example 133, 3-(2-Hydroxy-2-phenylpropyl)-6-[(4-hydroxypiperidin-1-yl)carbonyl]-5-methyl-1-(3,3,3-trifluoropropyl)thieno[2,3-d]pyrimidine-2,4(1H,3H)-dione]
0.24 µM	CCn1c(=O)c2c(C(C)F)c(C(=O)N3CCNC(=O)C3)sc2n(CCC(F)(F)F)c1=O (single isomer, unassigned) [Example 148, 3-Ethyl-5-(1-fluoroethyl)-6-[(3-oxopiperazin-1-yl)carbonyl]-1-(3,3,3-trifluoropropyl)thieno[2,3-d]pyrimidine-2,4(1H,3H)-dione]
0.32 µM	CCn1c(=O)c2c(C(C)F)c(C(=O)N3CCNC(=O)C3)sc2n(CCC(F)(F)F)c1=O (single isomer, unassigned) [Example 149, 3-Ethyl-5-(1-fluoroethyl)-6-[(3-oxopiperazin-1-yl)carbonyl]-1-(3,3,3-trifluoropropyl)thieno[2,3-d]pyrimidine-2,4(1H,3H)-dione]
0.0046 µM	Cc1c(C(=O)N2CCC(O)CC2)sc2c1c(=O)n(CC(C)c1ccccc1)c(=O)n2CCC(F)(F)F (single isomer, unassigned; enantiomer 1) [Example 44, 6-[(4-Hydroxypiperidin-1-yl)carbonyl]-5-methyl-3-(2-phenylpropyl)-1-(3,3,3-trifluoropropyl)thieno[2,3-d]pyrimidine-2,4(1H,3H)-dione (enantiomer 1)]
0.059 µM	COC(Cn1c(=O)c2c(C)c(C(=O)N3CCC(O)CC3)sc2n(CCC(F)(F)F)c1=O)c1ccccc1 (single isomer, unassigned; enantiomer 1) [Example 48, 6-[(4-Hydroxypiperidin-1-yl)carbonyl]-3-(2-methoxy-2-phenylethyl)-5-methyl-1-(3,3,3-trifluoropropyl)thieno[2,3-d]pyrimidine-2,4(1H,3H)-dione (enantiomer 1)]
0.15 µM	Cc1c(C(=O)N2CCC(O)CC2)sc2c1c(=O)n(CC(C)c1ccccc1)c(=O)n2CCC(F)(F)F (single isomer, unassigned; enantiomer 2) [Example 45, 6-[(4-Hydroxypiperidin-1-yl)carbonyl]-5-methyl-3-(2-phenylpropyl)-1-(3,3,3-trifluoropropyl)thieno[2,3-d]pyrimidine-2,4(1H,3H)-dione (enantiomer 2)]
0.0044 µM	COC(Cn1c(=O)c2c(C)c(C(=O)N3CCC(O)CC3)sc2n(CCC(F)(F)F)c1=O)c1ccccc1 (single isomer, unassigned; enantiomer 2) [Example 47, 6-[(4-Hydroxypiperidin-1-yl)carbonyl]-3-(2-methoxy-2-phenylethyl)-5-methyl-1-(3,3,3-trifluoropropyl)thieno[2,3-d]pyrimidine-2,4(1H,3H)-dione (enantiomer 2)]
0.29 µM	COCCn1c(=O)n(CCc2ccccc2)c(=O)c2c(C)c(C(=O)N3CCC(O)CC3)sc21 [Example 3, 6-[(4-Hydroxypiperidin-1-yl)carbonyl]-1-(2-methoxyethyl)-5-methyl-3-(2-phenylethyl)thieno [2,3-d]pyrimidine-2,4(1H,3H)-dione]
0.052 µM	Cc1c(C(=O)N2CCC(O)CC2)sc2c1c(=O)n(CCc1ccccc1F)c(=O)n2CCC=C(F)F [Example 5, 1-(4,4-Difluorobut-3-en-1-yl)-3-[2-(2-fluorophenyl)ethyl]-6-[(4-hydroxypiperidin-1-yl)carbonyl]-5-methylthieno[2,3-d]pyrimidine-2,4(1H,3H)-dione]
0.11 µM	Cc1c(C(=O)N2CCC(O)CC2)sc2c1c(=O)n(CCc1ccccc1Cl)c(=O)n2CCC=C(F)F [Example 7, 3-[2-(2-Chlorophenyl)ethyl]-1-(4,4-difluorobut-3-en-1-yl)-6-[(4-hydroxypiperidin-1-yl)carbonyl]-5-methylthieno[2,3-d]pyrimidine-2,4(1H,3H)-dione]
0.052 µM	Cc1c(C(=O)N2CCC(O)CC2)sc2c1c(=O)n(CCc1cccc(F)c1)c(=O)n2CCC(F)(F)F [Example 9, 3-[2-(3-Fluorophenyl)ethyl]-6-[(4-hydroxypiperidin-1-yl)carbonyl]-5-methyl-1-(3,3,3-trifluoropropyl)thieno[2,3-d]pyrimidine-2,4(1H,3H)-dione]
0.31 µM	Cc1c(C(=O)N2CCC(O)CC2)sc2c1c(=O)n(CCc1cccc(Cl)c1)c(=O)n2CCC(F)(F)F [Example 10, 3-[2-(3-Chlorophenyl)ethyl]-6-[(4-hydroxypiperidin-1-yl)carbonyl]-5-methyl-1-(3,3,3-trifluoropropyl)thieno[2,3-d]pyrimidine-2,4(1H,3H)-dione]
